One data set has as its target T1, Toll-like receptor 8 (Homo sapiens, UniProt Q9NR97).
T1 sequence (Q9NR97 whole entry): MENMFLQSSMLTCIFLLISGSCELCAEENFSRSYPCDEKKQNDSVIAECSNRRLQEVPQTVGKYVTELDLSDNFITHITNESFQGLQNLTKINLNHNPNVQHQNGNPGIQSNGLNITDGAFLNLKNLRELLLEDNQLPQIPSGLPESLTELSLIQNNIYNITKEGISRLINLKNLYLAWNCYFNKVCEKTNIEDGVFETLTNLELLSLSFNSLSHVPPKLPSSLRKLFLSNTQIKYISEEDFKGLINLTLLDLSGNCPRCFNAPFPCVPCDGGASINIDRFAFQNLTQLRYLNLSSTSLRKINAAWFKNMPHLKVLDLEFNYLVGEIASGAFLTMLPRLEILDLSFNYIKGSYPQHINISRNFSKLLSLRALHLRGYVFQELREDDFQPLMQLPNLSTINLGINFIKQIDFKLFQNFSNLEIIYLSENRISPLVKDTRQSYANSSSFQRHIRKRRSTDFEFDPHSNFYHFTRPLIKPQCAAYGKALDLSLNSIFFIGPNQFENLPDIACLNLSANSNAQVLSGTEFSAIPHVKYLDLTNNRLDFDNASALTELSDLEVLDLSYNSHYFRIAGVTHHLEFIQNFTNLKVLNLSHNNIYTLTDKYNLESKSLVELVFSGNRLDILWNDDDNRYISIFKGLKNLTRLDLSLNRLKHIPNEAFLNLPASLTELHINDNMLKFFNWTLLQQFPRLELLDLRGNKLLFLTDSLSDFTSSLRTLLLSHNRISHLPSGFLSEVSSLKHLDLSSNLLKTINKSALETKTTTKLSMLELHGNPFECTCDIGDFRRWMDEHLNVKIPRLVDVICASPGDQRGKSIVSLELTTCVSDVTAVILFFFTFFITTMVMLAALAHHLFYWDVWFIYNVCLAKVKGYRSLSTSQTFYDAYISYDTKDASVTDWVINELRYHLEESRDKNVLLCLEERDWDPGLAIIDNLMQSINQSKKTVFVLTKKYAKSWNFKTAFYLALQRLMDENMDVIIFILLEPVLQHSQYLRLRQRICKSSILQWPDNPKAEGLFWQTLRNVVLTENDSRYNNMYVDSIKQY
Put plainly: Antagonist activity at TLR8 in human Whole blood cell […] assessed as reduction in IL-6 level measured after 30 mins. The format is tissue-based.

Another data set deals with T2, Toll-like receptor 9 (Homo sapiens, UniProt Q9NR96).
T2 sequence (Q9NR96 whole entry): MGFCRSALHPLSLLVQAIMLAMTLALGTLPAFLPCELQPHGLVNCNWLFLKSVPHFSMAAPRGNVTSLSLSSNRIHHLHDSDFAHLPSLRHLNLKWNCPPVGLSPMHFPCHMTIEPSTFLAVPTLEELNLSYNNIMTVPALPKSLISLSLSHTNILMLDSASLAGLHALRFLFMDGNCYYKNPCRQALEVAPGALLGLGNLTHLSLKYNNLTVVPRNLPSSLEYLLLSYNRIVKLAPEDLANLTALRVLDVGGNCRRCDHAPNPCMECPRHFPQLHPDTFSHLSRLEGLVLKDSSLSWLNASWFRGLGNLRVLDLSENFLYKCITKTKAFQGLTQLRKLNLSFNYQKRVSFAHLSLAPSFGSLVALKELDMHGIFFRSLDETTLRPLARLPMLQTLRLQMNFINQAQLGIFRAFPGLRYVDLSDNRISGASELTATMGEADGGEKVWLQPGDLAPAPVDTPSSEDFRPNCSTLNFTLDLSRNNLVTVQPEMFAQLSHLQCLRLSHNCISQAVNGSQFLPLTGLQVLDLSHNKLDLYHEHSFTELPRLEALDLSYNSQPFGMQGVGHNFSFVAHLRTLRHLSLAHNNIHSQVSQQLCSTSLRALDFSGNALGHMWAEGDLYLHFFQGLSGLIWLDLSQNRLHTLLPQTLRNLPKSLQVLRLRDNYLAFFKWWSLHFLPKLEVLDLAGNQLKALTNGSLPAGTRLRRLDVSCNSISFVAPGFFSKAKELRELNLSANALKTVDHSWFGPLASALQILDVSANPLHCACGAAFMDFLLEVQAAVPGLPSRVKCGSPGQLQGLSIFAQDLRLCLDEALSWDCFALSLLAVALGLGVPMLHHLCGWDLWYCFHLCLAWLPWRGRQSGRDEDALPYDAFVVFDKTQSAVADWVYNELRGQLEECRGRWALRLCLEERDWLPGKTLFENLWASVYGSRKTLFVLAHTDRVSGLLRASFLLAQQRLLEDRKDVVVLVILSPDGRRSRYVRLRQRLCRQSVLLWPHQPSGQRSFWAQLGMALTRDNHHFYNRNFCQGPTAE
The data set is described as follows: Antagonist activity at TLR9 in human Whole blood cell assessed as reduction in IFN-alpha level measured after 30 mins. The format is tissue-based.

The nature of data set [1]: Cmax in mouse at 20 mg/kg, po. The format is ADME, organism-based. On the set-up: dose 20 mg/kg, route po. The settings on record: in vivo.
A short description of data set [2]: Clast in mouse at 20 mg/kg, po. The settings on record: in vivo, read-out: Clast. The format is ADME, organism-based.
The target in data set [3] is T3, Nuclear receptor subfamily 1 group I member 2 (Homo sapiens, UniProt O75469).
T3 sequence (O75469 whole entry): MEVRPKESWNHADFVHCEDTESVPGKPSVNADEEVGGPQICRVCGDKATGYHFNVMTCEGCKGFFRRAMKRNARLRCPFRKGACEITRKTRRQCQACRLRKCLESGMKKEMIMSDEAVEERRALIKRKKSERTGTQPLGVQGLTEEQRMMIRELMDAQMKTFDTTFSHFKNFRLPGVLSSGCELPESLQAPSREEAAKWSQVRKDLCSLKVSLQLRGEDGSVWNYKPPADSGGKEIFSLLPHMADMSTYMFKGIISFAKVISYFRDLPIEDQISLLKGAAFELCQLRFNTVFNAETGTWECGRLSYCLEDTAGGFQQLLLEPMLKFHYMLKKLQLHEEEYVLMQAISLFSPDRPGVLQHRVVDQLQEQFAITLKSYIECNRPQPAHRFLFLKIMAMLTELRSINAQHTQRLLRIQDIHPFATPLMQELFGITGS
The data set is described as follows: Induction of PXR (unknown origin) relative to control.

Data set [4] can be described thus: Inhibition of CYP2D9 (unknown origin). The format is ADME, Homo sapiens.

By IC50 is commonly meant the concentration at which inhibition is half-maximal. As usually defined, the Cmax is the maximum level reached in the sampled fluid or tissue.

On to `Cc1cc(N2CCc3c(c(C)nn3CC34CCC(NC(=O)[C@@H]5COCCN5)(CC3)CC4)C2)c2cnn(C)c2n1` [MHV-370], for which the values for the IC50 on Toll-like receptor 8 and at Toll-like receptor 9 were 74 nM and 1200 nM, respectively.

Regarding `Cc1cc(N2CCc3c(c(C)nn3CC34CCC(N)(CC3)CC4)C2)c2cnn(C)c2n1`, in data set [1], the peak concentration (Cmax) worked out at 321 nM. The concentration in data set [2] came out at 35 nM. The compound further came in with an Activity in data set [3] of 7.9%. The compound further had a concentration for half-maximal inhibition (IC50) in data set [4] greater than 25000 nM.

The values are drawn from ChEMBL document CHEMBL5360657, “Discovery of the TLR7/8 Antagonist MHV370 for Treatment of Systemic Autoimmune Diseases” (ACS Med Chem Lett, 2023).
